Assay results: paper PMC8041304, “Halogen Atoms in the Protein–Ligand System. Structural and Thermodynamic Studies of the Binding of Bromobenzotriazoles by the Catalytic Subunit of Human Protein Kinase CK2” (The Journal of Physical Chemistry. B, 2021)
Where “and” joins values, the source holds several entries; their conditions need not be identical. Identical values can stand only once.

Tests used:
[1] = biological target: T1, hCK2α (Homo sapiens, UniProt P68400); assay: Fluorescence-monitored thermal denaturation (nanoDSF) of hCK2α complexes; format: binding; settings: protein 2.5 μM, ligand 25 μM; for Tm (°C) at pH 7.5: hCK2α in complex with ligand; for ΔTm (°C) at pH 7.5: unfolding temperature with ligand minus without
T1 construct: made in house
Protocol: The samples were loaded into nanoDSF grade Standard Capillaries (NanoTemper Technologies) and analyzed using the Prometheus NT.48 nanoDSF device (NanoTemper Technologies). Thermal unfolding of the protein was monitored using a linear thermal ramp (1 °C·min^–1; 20–80 °C) with an excitation power of 30%.
This prompted us to measure the thermal stabilities of hCK2α and its complexes at pH 7.5 by fluorescence-monitored thermal denaturation (nanoDSF) (Table 2).

[2] = biological target: T1, hCK2α; parameters: method as in PMID 23155426; settings: pH 7.5; cited from earlier work
[3] = parameters: method as in doi:10.1016/j.molliq.2019.111527; settings: calculated water–octanol partition coefficient; cited from earlier work
[4] = biological target: T1, hCK2α; parameters: method as in PMID 25891901; settings: cited from earlier work
[5] = parameters: method as in PMID 32162783; settings: HPLC-derived hydrophobicity; cited from earlier work
[6] = Density measurements: partial molar volume and thermal expansivity of the solute; format: physicochemical; settings: 50 mM phosphate buffer pH 11; for α2^0, thermal volumetric expansivity of the solute: 20, 25, 30 °C; for V2^0, partial molar volume: 25 °C
Protocol: Partial molar volumes were estimated with a density meter Anton Paar DMA 5000 M at 20, 25, and 30 °C from the concentration–density dependency for compounds dissolved in 50 mM phosphate buffer (pH 11). The experimental procedure and the data analysis method were described previously.[36],[57],[58] The partial molar volume at 25 °C (V2^0) and thermal volumetric expansivity of the solute (α2^0 = ∂V2^0/∂T) were estimated globally from two independent dilution series. The density of pure solvent (d0) was extrapolated individually for each experimental condition (i.e., temperature and buffer preparation). The change of d0 with temperature was further used to determine thermal volumetric expansivity coefficient of the bulk buffer according to the formula α0 = −(∂d0/∂T)/d0.
According to the Lum, Chandler, and Weeks (LCW) theory, the hydrophobic interactions scale for solutes of subnanometer size with the volume of the molecule rather than its surface.[61] We have recently proposed partial molar volume as the extensive parameter to describe both the solute volume and the solute-induced reorganization of the solvation shell.[36],[57],[58],[62],[63] By analyzing density data at three temperatures (20, 25, and 30 °C), we could estimate the partial molar volume of the ligand (V2^0) and the bulk solvent density (d0(T)). We could further separate the thermal expansivity coefficient of the bulk solvent (α0) and the apparent expansivity of the solute (α2^0). The latter parameter is comprised mainly of the thermal expansion effect of the hydration shell. The values of α0 fell within the narrow range of (26.9 ± 1.3) × 10^–5 K^–1, which is close to the literature data for water (25.72 × 10^–5 K^–1 at 25 °C).[64] […] The solute thermal expansivity (α2^0), together with the change of isobaric heat capacity upon ligand binding (ΔCp,bind), has already been associated with the properties of the solvation layer.[65],[66] Importantly, α2^0 is proportional to the partial molar volume V2^0 (Figure 3D). So, V2^0 may be another descriptor of hydrophobic interactions. Consequently, the volume-normalized solute expansivity coefficient (α = α2^0/V2^0) is almost the same for all studied bromobenzotriazoles (232 ± 22 × 10^–5 K^–1). Importantly, this value substantially exceeds the thermal expansivity coefficient of the bulk buffer (α0 = 26.9 ± 1.3 × 10^–5 K^–1), clearly confirming that water organization changes with temperature more near the solute surface than in the bulk.

[7] = biological target: T1, hCK2α; assay: Isothermal titration calorimetry (MicroCal iTC200), reverse titration; format: binding; settings: for ΔGbind, free energy of binding: ITC; for ΔSrt, entropic term for loss of ligand rotational and translational degrees of freedom: calculated from ligand molecular mass; for Ts, temperature at which the entropy change upon ligand binding is zero: estimated from the linear fit of ΔS(T); for ΔSother, entropy change assigned to all other processes accompanying ligand binding: ΔSrt + ΔSHE(Ts) + ΔSother = 0; for ΔSHE(Ts), hydrophobic-effect contribution to the entropy change upon binding: ≈ 1.35∙ΔCp,bind∙ln(Ts/386)
Protocol: ITC measurements were carried out using the MicroCal iTC200 (Malvern) calorimeter. The hCK2α samples were diluted to the required protein concentration with the 25 mM Tris-HCl pH 8 buffer containing 0.5 M NaCl. Stock ligand solutions were diluted with the appropriate DMSO volume prior to mixing with the buffer to obtain the required ligand concentration and a final DMSO content of 1%. Due to the limited solubility of halogenated benzotriazoles, all titration experiments were performed in the reverse mode, in which buffered ligand solution was placed in the calorimetric cell and titrated with the protein solution.[35]
In all experiments the maximum ligand concentration of 10 μM was used to minimize a possible contribution of the secondary binding site.

[8] = iTC200, 15 °C, pH 8, independent experiments separately evaluated
[9] = iTC200, 20 °C, pH 8, independent experiments separately evaluated
[10] = iTC200, 25 °C, pH 8, independent experiments separately evaluated
[11] = iTC200, 30 °C, pH 8, independent experiments separately evaluated
[12] = iTC200, 35 °C, pH 8, independent experiments separately evaluated

T1 sequence (P68400 whole entry): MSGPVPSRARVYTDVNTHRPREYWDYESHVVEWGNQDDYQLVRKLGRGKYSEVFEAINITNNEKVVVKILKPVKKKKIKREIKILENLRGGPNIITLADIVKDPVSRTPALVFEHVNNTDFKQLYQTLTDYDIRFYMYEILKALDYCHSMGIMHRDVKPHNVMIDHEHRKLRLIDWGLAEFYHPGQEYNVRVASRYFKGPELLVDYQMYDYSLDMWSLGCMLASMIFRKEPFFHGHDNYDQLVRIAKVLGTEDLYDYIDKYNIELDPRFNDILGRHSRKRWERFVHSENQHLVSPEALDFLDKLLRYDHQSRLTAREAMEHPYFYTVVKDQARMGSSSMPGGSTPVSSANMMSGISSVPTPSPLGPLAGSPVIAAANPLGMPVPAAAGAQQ

Row | SMILES | Tm (°C) at pH 7.5 [1] [°C] | ΔTm (°C) at pH 7.5 [1] [°C] | IC50 [2] [µM] | log P [3] | ΔTm (°C) at pH 8 [4] [°C] | log(τ) [5] | α2^0, thermal volumetric expansivity of the solute [6] [cm^3·mol^–1·K^–1] | V2^0, partial molar volume [6] [cm^3·mol^–1] | ΔGbind, free energy of binding ([7]; 25 °C, pH 8) | ΔSrt, entropic term for loss of ligand rotational and translational degrees of freedom [7] [J∙mol-1∙K-1] | Ts, temperature at which the entropy change upon ligand binding is zero [7] [K] | Kd [7, 8] | ΔS [7, 8] | Kd [7, 9] | ΔS [7, 9] | Kd [7, 10] | Kd [7, 11] | Kd [7, 12] | ΔSother, entropy change assigned to all other processes accompanying ligand binding [7] [J∙mol-1∙K-1] | ΔSHE(Ts), hydrophobic-effect contribution to the entropy change upon binding [7] [J∙mol-1∙K-1] | other results
1 | Brc1ccc(Br)c2n[nH]nc12 [4,7-Br2Bt] | 47.15 ± 0.03 | 2.0 ± 0.1 | 72 ± 11 | 2.37 | 0.9 ± 0.1 | –0.55 | 0.19 ± 0.25 | 149.8 ± 1.0 |  |  |  |  |  |  |  |  |  |  |  |  | 
2 | Brc1cc(Br)c2[nH]nnc2c1Br [4,5,7-Br3Bt] | 49.81 ± 0.07 | 4.6 ± 0.1 | 5.8 ± 0.9 | 2.98 | 5.2 ± 0.1 | –0.22 | 0.55 ± 0.23 | 174.7 ± 0.9 | –34.5 ± 0.4 kJ·mol^–1 | -301 | 316 ± 33 | 0.67 µM and 0.76 µM | 69 ± 8 J·mol-1·K-1 and 56 ± 8 J·mol-1·K-1 | 0.71 µM and 1.2 µM | 53 ± 6 J·mol-1·K-1 and 47 ± 11 J·mol-1·K-1 | 0.9 µM and 0.91 µM | 1.36 µM and 0.76 µM | 1.23 µM and 0.87 µM | 118 ± 16 | 184 ± 16 | ΔG [7, 10]: -8.25 ± 0.12 kcal/mol and -8.25 ± 0.19 kcal/mol; ΔS [7, 10]: 34 ± 5 J·mol-1·K-1 and 38 ± 9 J·mol-1·K-1; ΔS [7, 11]: 24 ± 8 J·mol-1·K-1 and 34 ± 6 J·mol-1·K-1; ΔS [7, 12]: 15 ± 6 J·mol-1·K-1 and 8 ± 6 J·mol-1·K-1
3 | Brc1ccc2[nH]nnc2c1Br [4,5-Br2Bt] | 49.55 ± 0.05 | 4.4 ± 0.1 | 10.6 ± 0.9 | 2.34 | 3.5 ± 0.1 | –0.39 | 0.36 ± 0.21 | 151.7 ± 0.9 | –34.9 ± 0.4 kJ·mol^–1 | -291 | 299 ± 37 | 0.26 µM and 0.47 µM | 21 ± 6 J·mol-1·K-1 and 22 ± 6 J·mol-1·K-1 | 0.61 µM and 0.54 µM | 8 ± 6 J·mol-1·K-1 and 7 ± 15 J·mol-1·K-1 | 0.77 µM and 0.67 µM | 0.88 µM and 1.43 µM | 1.44 µM and 1.16 µM | 143 ± 17 | 148 ± 17 | ΔH [7, 9]: -7.89 ± 0.359 kcal/mol and -7.89 ± 0.884 kcal/mol
4 | Brc1cc(Br)c2n[nH]nc2c1 [4,6-Br2Bt] | 49.21 ± 0.04 | 4.0 ± 0.1 | 10 ± 2.2 | 2.37 | 3.6 ± 0.1 | –0.38 | 0.41 ± 0.21 | 155.4 ± 0.9 | –34.5 ± 0.4 kJ·mol^–1 | -291 | 301 ± 47 | 0.343 µM and 0.54 µM | 26 ± 8 J·mol-1·K-1 and 23 ± 12 J·mol-1·K-1 | 0.55 µM and 0.68 µM | 7 ± 15 J·mol-1·K-1 and 11 ± 13 J·mol-1·K-1 | 0.9 µM and 0.88 µM | 1.25 µM and 1.14 µM and 0.84 µM | 2.4 µM and 1.77 µM | 143 ± 20 | 148 ± 20 | ΔS [7, 10]: 5 ± 8 J·mol-1·K-1 and 9 ± 15 J·mol-1·K-1; ΔS [7, 12]: -26 ± 71 J·mol-1·K-1 and -26 ± 13 J·mol-1·K-1
5 | Brc1cccc2n[nH]nc12 [4-BrBt] | 45.92 ± 0.05 | 0.7 ± 0.1 | 119 ± 10 | 1.72 | 0.5 ± 0.1 | –0.65 | 0.30 ± 0.08 | 139.6 ± 0.3 |  |  |  |  |  |  |  |  |  |  |  |  | 
6 | Brc1c(Br)c(Br)c2[nH]nnc2c1Br [4,5,6,7-Br4Bt, 4,5,6,7-tetrabromobenzotriazole] |  |  |  | 3.58 |  | –0.00 | 0.72 ± 0.28 | 194.1 ± 1.1 |  |  |  |  |  |  |  |  |  |  |  |  | 
